# Reference: ChEMBL document CHEMBL1201862, “PubChem BioAssay data set” (2004)
#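 Where inhibition never reached the appropriate level, the endpoint shown equals the highest concentration tested. Otherwise, values were interpolated linearly from a five-concentration, 48-hour dose response in 96-well plates. Here, GI50 denotes the concentration required for 50% inhibition of growth.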 Activity calls are given as the source filed them. Cut-off read from the data, not from the text of the source: active = GI50 up to about 1.1 µM and inactive = higher.
# What was measured:
# Assay in all cases: growth of human tumour cells (NCI), 48 h
# RPMI-8226 = tested on: RPMI-8226
# SK-MEL-5 = tested on: SK-MEL-5
# HL-60 = tested on: HL-60
# A549 = tested on: A549
# LOX IMVI = tested on: LOX IMVI
# NCI/ADR-RES = tested on: NCI/ADR-RES
# Malme-3M = tested on: Malme-3M
# ACHN = tested on: ACHN
# MDA-MB-435 = tested on: MDA-MB-435
# CAKI-1 = tested on: CAKI-1
# Hs-578T = tested on: Hs-578T
# UO-31 = tested on: UO-31
# SNB-19 = tested on: SNB-19
# BT-549 = tested on: BT-549
# K562 = tested on: K562
# SK-MEL-2 = tested on: SK-MEL-2
# 786-0 = tested on: 786-0
# T47D = tested on: T47D
# SK-MEL-28 = tested on: SK-MEL-28
# IGROV-1 = tested on: IGROV-1
Compound,GI50 (RPMI-8226),GI50 (SK-MEL-5),GI50 (HL-60),GI50 (A549),GI50 (LOX IMVI),GI50 (NCI/ADR-RES),GI50 (Malme-3M),GI50 (ACHN),GI50 (MDA-MB-435),GI50 (CAKI-1),GI50 (Hs-578T),GI50 (UO-31),GI50 (SNB-19),GI50 (BT-549),GI50 (K562),GI50 (SK-MEL-2),GI50 (786-0),GI50 (T47D),GI50 (SK-MEL-28),GI50 (IGROV-1)
CS(=O)(=O)C(=Cc1ccccc1Cl)S(C)(=O)=O,> 100 µM (inactive),> 92 µM (inactive),1.14 µM (inactive),> 100 µM (inactive),> 100 µM (inactive),> 100 µM (inactive),> 100 µM (inactive),> 100 µM (inactive),> 27.8 µM (inactive),> 100 µM (inactive),> 91.2 µM (inactive),> 100 µM (inactive),> 100 µM (inactive),> 100 µM (inactive),3.7 µM (inactive),> 100 µM (inactive),> 100 µM (inactive),> 100 µM (inactive),> 100 µM (inactive),> 100 µM (inactive)
CNc1nc2c(C)ccc3nc(N(C)C)[nH]c3c-2n1,20.7 µM (inactive),20.7 µM (inactive),26.9 µM (inactive),39.9 µM (inactive),31.7 µM (inactive),77.1 µM (inactive),31.1 µM (inactive),15.2 µM (inactive),50.8 µM (inactive),65.5 µM (inactive),97.9 µM (inactive),34.6 µM (inactive),15.3 µM (inactive),84.7 µM (inactive),12.8 µM (inactive),93.1 µM (inactive),51.3 µM (inactive),46.6 µM (inactive),52 µM (inactive),47.8 µM (inactive)
O=C(O)c1ccc(Nc2cnc3ccc(C(F)(F)F)cc3n2)cc1,18.1 µM (inactive),16.9 µM (inactive),5.4 µM (inactive),13.4 µM (inactive),12.1 µM (inactive),32.7 µM (inactive),32.4 µM (inactive),18 µM (inactive),31.6 µM (inactive),14.4 µM (inactive),7.08 µM (inactive),13.7 µM (inactive),18.8 µM (inactive),20.9 µM (inactive),20.9 µM (inactive),13.2 µM (inactive),38.9 µM (inactive),6.07 µM (inactive),34 µM (inactive),12.4 µM (inactive)
CN(C)P(=O)(Oc1ccc(CC(NC(=O)OCc2ccccc2)C(=O)OCc2ccccc2)cc1)N(C)C (stereo not given),2.77 µM (inactive),20.7 µM (inactive),13.2 µM (inactive),19.2 µM (inactive),16 µM (inactive),17.9 µM (inactive),17.3 µM (inactive),18.5 µM (inactive),12.2 µM (inactive),17.6 µM (inactive),24.4 µM (inactive),18.5 µM (inactive),20 µM (inactive),17.1 µM (inactive),22.7 µM (inactive),15.6 µM (inactive),4.94 µM (inactive),21 µM (inactive),16.8 µM (inactive),17.2 µM (inactive)
CCOC(=O)C(=O)C(CCC(=O)c1ccc2ccccc2c1O)C(=O)OCC (stereo not given),> 100 µM (inactive),> 100 µM (inactive),> 100 µM (inactive),> 100 µM (inactive),> 100 µM (inactive),> 100 µM (inactive),> 100 µM (inactive),> 100 µM (inactive),> 100 µM (inactive),> 100 µM (inactive),> 100 µM (inactive),> 100 µM (inactive),> 100 µM (inactive),> 100 µM (inactive),> 100 µM (inactive),> 100 µM (inactive),> 100 µM (inactive),> 100 µM (inactive),> 100 µM (inactive),> 100 µM (inactive)
O=C1c2c(F)c(F)c(F)c(F)c2SC2=NCCN12,4 µM (inactive),14.8 µM (inactive),2.19 µM (inactive),14.7 µM (inactive),1.61 µM (inactive),10.4 µM (inactive),5.65 µM (inactive),8.41 µM (inactive),2.85 µM (inactive),3.1 µM (inactive),14.2 µM (inactive),10.1 µM (inactive),15.3 µM (inactive),14.8 µM (inactive),2.1 µM (inactive),1.84 µM (inactive),7.26 µM (inactive),12.5 µM (inactive),9.38 µM (inactive),7.19 µM (inactive)
O=C(NC12CC3CC(CC(C3)C1)C2)n1cnc2cncnc21,22.5 µM (inactive),16.1 µM (inactive),28.7 µM (inactive),47.5 µM (inactive),25.8 µM (inactive),28.6 µM (inactive),26 µM (inactive),34.8 µM (inactive),31.3 µM (inactive),28.4 µM (inactive),54.6 µM (inactive),91.2 µM (inactive),93.3 µM (inactive),46.8 µM (inactive),35.1 µM (inactive),18.2 µM (inactive),50.1 µM (inactive),20.6 µM (inactive),> 100 µM (inactive),26.6 µM (inactive)
Cc1c2cc[n+](CCN3CCCCC3)cc2c(C)c2c1[nH]c1ccc(O)cc12,2.48 µM (inactive),2.54 µM (inactive),1.69 µM (inactive),1.35 µM (inactive),4.41 µM (inactive),16.3 µM (inactive),2.39 µM (inactive),5.92 µM (inactive),10.2 µM (inactive),5.48 µM (inactive),2.84 µM (inactive),17.1 µM (inactive),1.16 µM (inactive),11.8 µM (inactive),2.69 µM (inactive),11.9 µM (inactive),2.41 µM (inactive),2.82 µM (inactive),6.1 µM (inactive),2.89 µM (inactive)
N#Cc1c(N)nc(Sc2ccccc2N)c(C#N)c1-c1ccc(Cl)cc1,2.61 µM (inactive),12.6 µM (inactive),> 27.5 µM (inactive),9.4 µM (inactive),4.45 µM (inactive),6.4 µM (inactive),6.61 µM (inactive),10.7 µM (inactive),11.7 µM (inactive),17.9 µM (inactive),7.26 µM (inactive),2.79 µM (inactive),14.3 µM (inactive),4.21 µM (inactive),3.07 µM (inactive),5.14 µM (inactive),6.98 µM (inactive),0.368 µM (active),33.6 µM (inactive),5.52 µM (inactive)
